For 33 compounds, melting point results are on record in patent US20100004221A1, “THIAZEPINE DERIVATIVE” (DAIICHI SANKYO COMPANY, LIMITED, priority 2006, published 2010).

In turn, `CC1(CO)Cc2nnc(-c3ccc(-c4ccc(F)c(Cl)c4)cc3Cl)n2CCS1` (stereo not drawn) [Example 30, [3-(3,3′-Dichloro-4′-fluorobiphenyl-4-yl)-8-methyl-5,6,8,9-tetrahydro[1,2,4]triazolo[4,3-d][1,4]thiazepin-8-yl]methanol] had a melting point of 235 to 239 °C. To `CC1(C)Cc2nnc(-c3ccc(F)cc3Cl)n2CCS1` [Example 50, 3-(2-Chloro-4-fluorophenyl)-8,8-dimethyl-5,6,8,9-tetrahydro[1,2,4]triazolo[4,3-d][1,4]thiazepine] belongs 177 to 182 °C.

`CC1(CO)Cc2nnc(-c3cccc4c3ccn4-c3ccc(F)cc3)n2CCS1` (stereo not drawn) [Example 43, {3-[1-(4-Fluorophenyl)-1H-indol-4-yl]-8-methyl-5,6,8,9-tetrahydro[1,2,4]triazolo[4,3-d][1,4]thiazepin-8-yl}methanol]: the melting point was in the range of 117 to 120 °C.

As to `COc1ccc(-c2ccc(-c3nnc4n3CCSC(C)(CO)C4)c(Cl)c2)cc1` (stereo not drawn) [Example 21, [3-(3-Chloro-4′-methoxybiphenyl-4-yl)-8-methyl-5,6,8,9-tetrahydro[1,2,4]triazolo[4,3-d][1,4]thiazepin-8-yl]methanol], the melting point was in the range of 179 to 182 °C. The same measure for `COc1ccccc1-c1nnc2n1CCSC(C)(C)C2` [Example 47, 8,8-Dimethyl-3-(2-methoxyphenyl)-5,6,8,9-tetrahydro[1,2,4]triazolo[4,3-d][1,4]thiazepine]: 141 to 143 °C; for `Cc1ccc(-c2ccc(-c3nnc4n3CCSC(C)(CO)C4)c(Cl)c2)cc1` (stereo not drawn) [Example 20, [3-(3-Chloro-4′-methylbiphenyl-4-yl)-8-methyl-5,6,8,9-tetrahydro[1,2,4]triazolo[4,3-d][1,4]thiazepin-8-yl]methanol]: 223 to 225 °C; for `CC1(CO)Cc2nnc(-c3cccc(-c4ccc(F)cc4)c3Cl)n2CCS1` (stereo not drawn) [Example 33, [3-(2-Chloro-4′-fluorobiphenyl-3-yl)-8-methyl-5,6,8,9-tetrahydro[1,2,4]triazolo[4,3-d][1,4]thiazepin-8-yl]methanol]: 192 to 195 °C. The same measure for `CC1(CO)Cc2nnc(-c3cc(-c4ccc(F)cc4)ccc3Cl)n2CCS1` (stereo not drawn) [Example 34, [3-(4-Chloro-4′-fluorobiphenyl-3-yl)-8-methyl-5,6,8,9-tetrahydro[1,2,4]triazolo[4,3-d][1,4]thiazepin-8-yl]methanol]: 165 to 168 °C. Compound `COc1cc(-c2cccc(NS(C)(=O)=O)c2)ccc1-c1nnc2n1CCSC(C)(CO)C2` (stereo not drawn) [Example 55, N-{4′-[8-(Hydroxymethyl)-8-methyl-5,6,8,9-tetrahydro[1,2,4]triazolo[4,3-d][1,4]thiazepin-3-yl]-3′-methoxybiphenyl-3-yl}methanesulfonamide] had a melting point of 250 to 252 °C. Turning to `CC1(CO)Cc2nnc(-c3ccc(Oc4ccc(F)cc4)cc3Cl)n2CCS1` (stereo not drawn) [Example 42, {3-[2-Chloro-4-(4-fluorophenoxy)phenyl]-8-methyl-5,6,8,9-tetrahydro[1,2,4]triazolo[4,3-d][1,4]thiazepin-8-yl}methanol], the melting point was in the range of 138 to 140 °C. In the case of `CC1(CO)Cc2nnc(-c3ccc(-c4cccnc4)cc3Cl)n2CCS1` (stereo not drawn) [Example 35, {3-[2-Chloro-4-(pyridin-3-yl)phenyl]-8-methyl-5,6,8,9-tetrahydro[1,2,4]triazolo[4,3-d][1,4]thiazepin-8-yl}methanol], the melting point lay in the range of 206 to 209 °C. The same measure for `CC1(CO)Cc2nnc(-c3ccc(-c4cccc(Cl)c4)cc3Cl)n2CCS1` (stereo not drawn) [Example 16, [3-(3,3′-Dichlorobiphenyl-4-yl)-8-methyl-5,6,8,9-tetrahydro[1,2,4]triazolo[4,3-d][1,4]thiazepin-8-yl]methanol]: 173 to 176 °C; for `CC1(CO)Cc2nnc(-c3ccc(-n4cccc4)cc3Cl)n2CCS1` (stereo not drawn) [Example 40, {3-[2-Chloro-4-(1H-pyrrol-1-yl)phenyl]-8-methyl-5,6,8,9-tetrahydro[1,2,4]triazolo[4,3-d][1,4]thiazepin-8-yl}methanol]: 110 to 112 °C; for `CC1(CO)Cc2nnc(-c3ccc(-c4ccccc4)cc3Cl)n2CCS1` (stereo not drawn) [Example 9, [3-(3-Chlorobiphenyl-4-yl)-8-methyl-5,6,8,9-tetrahydro[1,2,4]triazolo[4,3-d][1,4]thiazepin-8-yl]methanol]: 166 to 169 °C. The same measure for `CC1(CO)Cc2nnc(-c3ccc(N4CCCC4)cc3Cl)n2CCS1` (stereo not drawn) [Example 39, {3-[2-Chloro-4-(pyrrolidin-1-yl)phenyl]-8-methyl-5,6,8,9-tetrahydro[1,2,4]triazolo[4,3-d][1,4]thiazepin-8-yl}methanol]: 193 to 196 °C; for `COc1cc(-c2cccc(Cl)c2)ccc1-c1nnc2n1CCSC(C)(CO)C2` (stereo not drawn) [Example 24, [3-(3′-Chloro-3-methoxybiphenyl-4-yl)-8-methyl-5,6,8,9-tetrahydro[1,2,4]triazolo[4,3-d][1,4]thiazepin-8-yl]methanol]: 173 to 176 °C; for `CC1(CO)Cc2nnc(-c3ccc(-c4cccc(Cl)c4)cc3F)n2CCS1` (stereo not drawn) [Example 11, [3-(3′-Chloro-3-fluorobiphenyl-4-yl)-8-methyl-5,6,8,9-tetrahydro[1,2,4]triazolo[4,3-d][1,4]thiazepin-8-yl]methanol]: 165 to 168 °C. Regarding `COc1cc(-c2ccc(F)cc2)ccc1-c1nnc2n1CCSC(C)(CO)C2` (stereo not drawn) [Example 10, [3-(4′-Fluoro-3-methoxybiphenyl-4-yl)-8-methyl-5,6,8,9-tetrahydro[1,2,4]triazolo[4,3-d][1,4]thiazepin-8-yl]methanol], the melting point lay in the range of 212 to 215 °C.

For the compound `CC1(CO)Cc2nnc(-c3ccc(-c4ccc(F)cc4)cc3C(F)(F)F)n2CCS1` (stereo not drawn) [Example 22, {3-[4′-Fluoro-3-(trifluoromethyl)biphenyl-4-yl)-8-methyl-5,6,8,9-tetrahydro[1,2,4]triazolo[4,3-d][1,4]thiazepin-8-yl]methanol], the melting point fell in the range of 202 to 204 °C. To `CC1(C)Cc2nnc(-c3ccccc3Cl)n2CCS1` [Example 45, 3-(2-Chlorophenyl)-8,8-dimethyl-5,6,8,9-tetrahydro[1,2,4]triazolo[4,3-d][1,4]thiazepine] belongs 183 to 185 °C. `CC1(CO)Cc2nnc(-c3ccc(-c4ccncc4)cc3Cl)n2CCS1` (stereo not drawn) [Example 36, {3-[2-Chloro-4-(pyridin-4-yl)phenyl]-8-methyl-5,6,8,9-tetrahydro[1,2,4]triazolo[4,3-d][1,4]thiazepin-8-yl}methanol]: the melting point fell in the range of 229 to 233 °C. To `CCc1ccccc1-c1nnc2n1CCSC(C)(C)C2` [Example 48, 3-(2-Ethylphenyl)-8,8-dimethyl-5,6,8,9-tetrahydro[1,2,4]triazolo[4,3-d][1,4]thiazepine] belongs 125 °C; to `CC1(CO)Cc2nnc(-c3ccc(-c4ccccc4F)cc3Cl)n2CCS1` (stereo not drawn) [Example 13, [3-(3-Chloro-2′-fluorobiphenyl-4-yl)-8-methyl-5,6,8,9-tetrahydro[1,2,4]triazolo[4,3-d][1,4]thiazepin-8-yl]methanol], 147 to 149 °C. `CC1(CO)Cc2nnc(-c3ccc(-c4cccc(Cl)c4F)cc3Cl)n2CCS1` (stereo not drawn) [Example 28, [3-(3,3′-Dichloro-2′-fluorobiphenyl-4-yl)-8-methyl-5,6,8,9-tetrahydro[1,2,4]triazolo[4,3-d][1,4]thiazepin-8-yl]methanol]: the melting point fell in the range of 156 to 160 °C. To `CC1(CO)Cc2nnc(-c3ccc(N4CCCCC4)cc3Cl)n2CCS1` (stereo not drawn) [Example 38, {3-[2-Chloro-4-(piperidin-1-yl)phenyl]-8-methyl-5,6,8,9-tetrahydro[1,2,4]triazolo[4,3-d][1,4]thiazepin-8-yl}methanol] belongs 195 to 198 °C; to `CC1(CO)Cc2nnc(-c3ccc(-c4ccc(F)cc4)cc3Cl)n2CCS1` (single isomer, unassigned; (+)) [Example 57, (+)-[3-(3-Chloro-4′-fluorobiphenyl-4-yl)-8-methyl-5,6,8,9-tetrahydro[1,2,4]triazolo[4,3-d][1,4]thiazepin-8-yl]methanol], 211 to 214 °C; to `CC1(CO)Cc2nnc(-c3ccc(-c4ccc(F)c(F)c4)cc3Cl)n2CCS1` (stereo not drawn) [Example 26, [3-(3-Chloro-3′,4′-difluorobiphenyl-4-yl)-8-methyl-5,6,8,9-tetrahydro[1,2,4]triazolo[4,3-d][1,4]thiazepin-8-yl]methanol], 231 to 234 °C. `CC1(CO)Cc2nnc(-c3ccc(N4CCOCC4)cc3Cl)n2CCS1` (stereo not drawn) [Example 37, {3-[2-Chloro-4-(morpholin-4-yl)phenyl]-8-methyl-5,6,8,9-tetrahydro[1,2,4]triazolo[4,3-d][1,4]thiazepin-8-yl}methanol] gave a melting point of 191 to 193 °C. To `CC1(CO)Cc2nnc(-c3ccc(-c4cc(F)cc(F)c4)cc3Cl)n2CCS1` (stereo not drawn) [Example 27, [3-(3-Chloro-3′,5′-difluorobiphenyl-4-yl)-8-methyl-5,6,8,9-tetrahydro[1,2,4]triazolo[4,3-d][1,4]thiazepin-8-yl]methanol] belongs 260 to 265 °C. For the compound `COc1cccc(-c2ccc(-c3nnc4n3CCSC(C)(CO)C4)c(Cl)c2)c1` (stereo not drawn) [Example 18, [3-(3-Chloro-3′-methoxybiphenyl-4-yl)-8-methyl-5,6,8,9-tetrahydro[1,2,4]triazolo[4,3-d][1,4]thiazepin-8-yl]methanol], the melting point lay in the range of 181 to 184 °C. The same measure for `CC1(CO)Cc2nnc(-c3ccc(-c4ccccc4Cl)cc3Cl)n2CCS1` (stereo not drawn) [Example 14, [3-(3,2′-Dichlorobiphenyl-4-yl)-8-methyl-5,6,8,9-tetrahydro[1,2,4]triazolo[4,3-d][1,4]thiazepin-8-yl]methanol]: 177 to 180 °C; for `Cc1ccccc1-c1nnc2n1CCSC(C)(C)C2` [Example 46, 8,8-Dimethyl-3-(2-methylphenyl)-5,6,8,9-tetrahydro[1,2,4]triazolo[4,3-d][1,4]thiazepine]: 106 to 107 °C. To `COc1cc(-c2cccc(C#N)c2)ccc1-c1nnc2n1CCSC(C)(CO)C2` (stereo not drawn) [Example 25, 4′-[8-(Hydroxymethyl)-8-methyl-5,6,8,9-tetrahydro[1,2,4]triazolo[4,3-d][1,4]thiazepin-3-yl]-3′-methoxybiphenyl-3-carbonitrile] belongs 232 to 236 °C.

The melting point is the temperature, or range, at which the solid turns liquid.
